#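 Interpolation was linear, between the two tested concentrations surrounding the appropriate level; five concentrations were tested over 48 hours in 96-well plates. GI50: concentration for 50% inhibition of growth. At the TGI there is no net growth.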
# Assays:
# Experiment in all cases: NCI-60 cell line screen, 48 h
# CAKI-1 renal = test system: CAKI-1 renal
# EKVX NSCLC = test system: EKVX NSCLC
# HCC-2998 colon = test system: HCC-2998 colon
# HCT-116 colon = test system: HCT-116 colon
# LOX IMVI melanoma = test system: LOX IMVI melanoma
# M14 melanoma = test system: M14 melanoma
# MALME-3M melanoma = test system: MALME-3M melanoma
# OVCAR-3 ovarian = test system: OVCAR-3 ovarian
# SF-539 CNS = test system: SF-539 CNS
# SK-OV-3 ovarian = test system: SK-OV-3 ovarian
Structure (SMILES),GI50 (CAKI-1 renal) [µM],TGI (CAKI-1 renal) [µM],GI50 (EKVX NSCLC) [µM],TGI (EKVX NSCLC) [µM],GI50 (HCC-2998 colon) [µM],TGI (HCC-2998 colon) [µM],GI50 (HCT-116 colon) [µM],TGI (HCT-116 colon) [µM],GI50 (LOX IMVI melanoma) [µM],TGI (LOX IMVI melanoma) [µM],GI50 (M14 melanoma) [µM],TGI (M14 melanoma) [µM],GI50 (MALME-3M melanoma) [µM],TGI (MALME-3M melanoma) [µM],GI50 (OVCAR-3 ovarian) [µM],TGI (OVCAR-3 ovarian) [µM],GI50 (SF-539 CNS) [µM],TGI (SF-539 CNS) [µM],GI50 (SK-OV-3 ovarian) [µM],TGI (SK-OV-3 ovarian) [µM]
CCOC(=O)c1cc(-c2ccc(OC)c(OC)c2)[nH]c1N/N=C/c1c(Cl)cccc1Cl,1.59,11.4,5.37,19.9,0.668,4.38,1.39,5.44,3.6,20.5,2.32,14.9,2.88,16.7,0.74,2.64,1.44,5.27,1.85,17.6
COc1cc2c(cc1OC)c1c(OC)c(OC)cc3c1c1c2sc(=S)n1CC3,–,> 100,–,> 100,–,> 100,–,> 100,–,> 100,–,35.1,–,> 100,–,> 100,–,> 100,–,> 100
CC(=O)NC(CCCCN(Cc1ccccc1)C(=O)N(CCCl)N=O)C(=O)NCc1ccccc1 (stereo not given),–,97.7,–,97.9,–,> 100,–,> 62.6,–,> 58.1,–,> 71.5,–,58.1,–,> 100,–,28.5,–,> 76.3
CC1=NN(C(=O)c2ccc(Cl)cc2)C(=O)/C1=C/c1ccco1,–,> 100,–,> 100,–,> 100,–,> 100,–,> 100,–,> 100,–,> 100,–,> 100,–,> 100,–,> 100
CC1=C2[C@H](c3ccccc3)C3C=CC2(c2ccccc23)N(C(=O)C(c2ccccc2)c2ccccc2)C1=O (stereo not given in full),–,> 100,–,> 100,–,> 100,–,> 100,–,> 100,–,> 100,–,> 100,–,> 100,–,> 100,–,> 100
COC(=O)C(C(=O)C(=O)Nc1ccc(OC)cc1[N+](=O)[O-])c1nc2cc(C)c(C)cc2[nH]c1=O (stereo not given),–,> 100,–,> 100,–,> 100,–,> 100,–,> 100,–,> 100,–,> 100,–,> 100,–,> 100,–,> 100
COc1cc(-c2ccc(NC(=O)NC3CC3)c(OC)c2)ccc1NC(=O)NC1CC1,6.2,> 60.7,> 100,> 100,28,> 100,3.22,> 100,3.15,> 83.8,> 100,> 100,4.99,> 100,25.7,> 100,4.86,99.8,23.8,> 100
Cc1nc(Nc2ccccc2)sc1C(=O)CC(=O)C(=O)NC12CC3CC(CC(C3)C1)C2,–,> 100,–,73,–,> 100,–,> 100,–,> 100,–,> 100,–,> 100,–,> 100,–,> 100,–,> 100
O=C1C(=O)N(c2cccc(C(F)(F)F)c2)C(=O)C(=O)C1c1nc2ccccc2s1,–,> 100,–,> 100,–,> 100,–,> 100,–,> 100,–,> 100,–,> 100,–,> 100,–,> 100,–,> 100
CCN(CC)CC(C)(C)C(=O)/C=C/c1ccc(/C=C/C(=O)C(C)(C)CN(CC)CC)cc1,–,1.99,–,3.67,–,1.56,–,0.74,–,1.04,–,2.46,–,2.79,–,1.76,–,2.54,–,4.08
CC(O)CN1c2ccccc2Sc2ccc(Cl)cc21 (stereo not given),–,> 10,–,> 10,–,> 10,–,> 10,–,> 10,–,> 10,–,> 10,–,> 10,–,> 10,–,> 10
COc1ccc(/C=c2/sc3n(c2=O)NC(c2ccc(Cl)cc2)NN=3)cc1 (stereo not given),–,> 100,–,> 100,–,> 100,–,> 100,–,> 100,–,> 100,–,> 100,–,> 100,–,> 100,–,> 100
CCCCCCN(C)Cc1ccc(OCCOc2ccc(CN(C)CCCCCC)cc2)cc1,1.35,2.9,2.47,15.1,0.491,1.81,1.01,2.21,1.35,2.87,0.448,1.83,1.13,2.87,1.36,2.91,1.37,2.92,1.64,3.09
Cc1c(C2Cc3ccccc3N2)c2ccccc2n1C (stereo not given),–,> 100,–,> 100,–,> 100,–,> 100,–,> 100,–,> 100,–,> 100,–,> 100,–,> 100,–,> 100
